Reference: ChEMBL document CHEMBL1817567, “Design of benzimidazole- and benzoxazole-2-thione derivatives as inhibitors of bacterial hyaluronan lyase” (Eur J Med Chem, 2011)

Biological target: T1, Hyaluronidase (Bos taurus, UniProt Q8SQG8+Q5E985)
T1 sequence (Q8SQG8 whole entry): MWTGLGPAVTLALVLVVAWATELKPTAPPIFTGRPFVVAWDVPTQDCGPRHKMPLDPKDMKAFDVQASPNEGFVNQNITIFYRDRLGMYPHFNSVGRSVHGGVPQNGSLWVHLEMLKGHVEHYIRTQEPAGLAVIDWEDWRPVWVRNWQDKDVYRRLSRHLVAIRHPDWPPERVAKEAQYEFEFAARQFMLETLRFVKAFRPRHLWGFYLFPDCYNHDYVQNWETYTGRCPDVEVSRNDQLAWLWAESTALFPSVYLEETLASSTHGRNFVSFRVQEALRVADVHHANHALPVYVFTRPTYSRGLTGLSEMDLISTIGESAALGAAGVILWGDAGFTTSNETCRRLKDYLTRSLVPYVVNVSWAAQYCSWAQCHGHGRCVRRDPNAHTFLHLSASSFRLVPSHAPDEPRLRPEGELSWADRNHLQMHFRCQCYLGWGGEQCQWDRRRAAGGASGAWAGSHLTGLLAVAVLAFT
T1 sequence (Q5E985 whole entry): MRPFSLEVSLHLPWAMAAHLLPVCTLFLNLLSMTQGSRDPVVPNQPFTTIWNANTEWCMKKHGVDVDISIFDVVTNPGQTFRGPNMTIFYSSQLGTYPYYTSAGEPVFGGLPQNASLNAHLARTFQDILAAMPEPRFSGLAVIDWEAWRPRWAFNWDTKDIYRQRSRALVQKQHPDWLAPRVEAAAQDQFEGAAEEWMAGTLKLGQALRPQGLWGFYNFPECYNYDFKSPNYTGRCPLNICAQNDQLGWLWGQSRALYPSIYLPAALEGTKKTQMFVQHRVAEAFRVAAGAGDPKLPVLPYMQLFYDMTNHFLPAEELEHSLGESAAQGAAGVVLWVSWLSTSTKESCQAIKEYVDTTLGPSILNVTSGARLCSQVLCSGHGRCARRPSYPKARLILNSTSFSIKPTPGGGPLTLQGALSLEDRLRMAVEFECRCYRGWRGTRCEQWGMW
Assay: Inhibition of bovine testes hyaluronidase after 30 mins at pH 5 by turbidimetric analysis
Assay type: protein assay

IC50: 107 µM
Structure (SMILES): Oc1ccc(-c2[nH]c3ccccc3c2-c2ccccc2)cc1
